According to patent US11253592B2, “Water-soluble compounds with aggregation-induced emission characteristics” (THE HONG KONG UNIVERSITY OF SCIENCE AND TECHNOLOGY, priority 2017, dated 2022):

Legend:
[1] = ROS generation with H2DCF-DA indicator under white light; details: 10 μM TTVP, 5 μM H2DCF-DA in PBS, white light 10 mW, within 60 s
Description: The strong absorption of TTVP in the visible light region permits utilization of visible light as the excitation light source for PDT processes. Visible light causes less damage to biological systems than UV light. The ROS generation efficiency of TTVP was initially determined by the use of H2DCF-DA as an indicator, which emits fluorescence with a “turn on” process triggered by ROS. As depicted in FIG. 11A, TTVP or H2DCF-DA alone was non-emissive or weekly emissive, and each fluorescence intensity remained almost constant within 60 s white light irradiation. […] The efficient ROS generation of TTVP could be attributed to both its small singlet-triplet energy gap (0.47 eV) and excellent monodispersity. The former favors the improvement of the yield of the triplet excited state, and the latter can enlarge contact area between TTVP and oxygen.

[2] = DLS analysis of nanoaggregates in water/THF; type: physicochemical; details: suspension with 90% fraction of THF
Protocol: (§1) Dynamic light scattering analysis (DLS) and transmission electron microscope (TEM) measurements were performed to confirm the formation of aggregates upon the addition of THF into the TTVP aqueous solution. […] In the solid state, TTVP emitted at 705 nm with 2.7% of quantum yield and 0.92 ns of lifetime (FIGS. 4-5, Table 1).

HeLa cells [3] = assay: Photostability under continuous laser irradiation in stained cells; type: cell-based; details: 15 min continuous laser irradiation, λex 488 nm
Protocol: For photostability studies, TTVP-labelled HeLa cells were imaged by a confocal microscope (Zeiss laser scanning confocal microscope LSM7 DUO) using ZEN 2009 software (Carl Zeiss). Conditions: for TTVP, excitation wavelength: 488 nm; for DiO, excitation wavelength: 488 nm (5% laser power).
The specificity of TTVP to plasma membrane was evaluated by co-staining with DiO, which is a commercially available bioprobe for plasma membrane. In this co-localization experiment, after incubating HeLa cells with DiO for 10 min, TTVP was added into the culture followed by culture shaking for a few seconds at room temperature. In order to accommodate the staining protocol of DiO, postwashing after cell staining was carried out. As shown in FIGS. 9A-9H, TTVP can selectively accumulate in the plasma membrane and emit strong red fluorescence. The well-merged images of TTVP and DiO indicate the high specificity of the compounds to the plasma membrane, and the Pearson's correlation coefficient is determined to be 89%. To assess the photostability of TTVP and DiO, continuous excitation and sequential scanning with confocal microscope were utilized.

[4] = Photophysical (optical) properties of TTVP; type: physicochemical
Protocol: H spectra were measured on Bruker ARX 400 NMR spectrometers using CD3OD as the deuterated solvent. High-resolution mass spectra (HRMS) were recorded on a Finnegan MAT TSQ 7000 Mass Spectrometer System operating in a MALDI-TOF mode. UV absorption spectra were taken on a Milton Ray Spectronic 3000 array spectrophotometer. Steady-state fluorescence spectra were recorded on a Perkin Elmer LS 55 spectrometer. Fluorescence images were collected on Olympus BX 41 fluorescence microscope. Laser confocal scanning microscope images were collected on Zeiss laser scanning confocal microscope (LSM7 DUO) and analyzed using ZEN 2009 software (Carl Zeiss).
(§2) TTVP benefits from its positively charged amine and pyridinium salt having hydrophilic characteristic, as well as the small size of the hydrophobic moiety. […] The relatively long absorption wavelength can be attributed to its small HOMO-LOMO energy gap, which is caused by the strong electron donating-accepting interaction of the emitting center (FIGS. 3A-3C).
as §1

HeLa cells [5] = assay: Flow cytometry Annexin V-FITC/PI double staining for apoptosis and necrosis; type: cell-based; details: 500 nM
Protocol: Effective ROS generation of the present compounds in PDT applications was quantitatively evaluated on HeLa cells by a standard MTT assay. A dose-dependent toxicity was determined in both the absence and presence of white light irradiation. […] In comparison, HeLa cells retained 90% viability when they were incubated with 1 μM of TTVP in dark conditions. Furthermore, flow cytometric analysis using Annexin V-FITC/propidium iodide (PI) double staining was utilized to determine cell apoptosis (FIGS. 11C and 11D). […] It is worth noting that continuous light irradiation with strong power (around 18.5 times higher than that for cell imaging depicted in FIGS. 6A-6H and FIGS. 8A-8H) led to some changes of cells, for instance, TTVP can gradually enter the cells (FIGS. 11E-11I); the cell membrane morphology changed, and the formation of blebs on the plasma membrane was clearly observed, which is a sign of cell death. Those changes can be attributed to the fact that the ROS generated from TTVP considerably disrupts the rigidity and permeability of plasma membrane, and induces cancer cell death. FIGS. 12A, 12B, 12C, 12D, and 12E depict bright-field confocal images of HeLa cell stained with TTVP upon the increase of irradiation time. λex: 488 nm (20% laser power, 0.925 μW).

HeLa cells [6] = assay: MTT cytotoxicity under white light irradiation (PDT); type: cell-based; details: white light irradiation (around 10 mW) 10 min
Protocol: For cytotoxicity studies relating to cytotoxicity of the present compounds to cancer cells under light irradiation, HeLa cells were seeded in 96-well plates (Costar, IL, USA) at a density of 6000-8000 cells/well. After overnight culturing, medium in each well were replaced by 100 μL fresh medium containing different concentrations of TTVP. After incubation for 3 s, plates containing HeLa cells were exposed to white light (around 10 mW) for 10 min, and another array of plates with cells were kept in dark as control. Then the plates were subjected to the same treatment as the biocompatibility test.
(§3) Effective ROS generation of the present compounds in PDT applications was quantitatively evaluated on HeLa cells by a standard MTT assay. A dose-dependent toxicity was determined in both the absence and presence of white light irradiation. […] In comparison, HeLa cells retained 90% viability when they were incubated with 1 μM of TTVP in dark conditions. Furthermore, flow cytometric analysis using Annexin V-FITC/propidium iodide (PI) double staining was utilized to determine cell apoptosis (FIGS. 11C and 11D). […]

Water solubility = type: physicochemical
Description: as §2

[7] = test system: plasma membrane of living HeLa cells; assay: Plasma membrane cell imaging by confocal microscopy; type: cell-based
Protocol: (§4) For cell imaging, cells were grown in a 35 mm Petri dish with a coverslip at 37° C. The live cells were incubated with a certain dye at a certain concentration for a certain time. After adding TTVP (500 nM), the Petri dish was shaken for a few seconds at room temperature, then the coverslip was removed. The TTVP-labelled cells were mounted and imaged using a laser scanning confocal microscope (LSM7 DUO) at 512 nm with 5% laser power (the scanning rate was 22.4 s per frame). The emission filter was 600-744 nm.
As a water-soluble NIR-emissive AIEgen, TTVP maintains an “off” state in an aqueous environment. As such, TTVP can serve as a “light-up” probe for bioimaging with minimal background interference from both free dyes and bio-substrate autofluorescence. In preliminary bioimaging experiments, cell imaging studies were conducted using HeLa cells as a cell model, and incubating 500 nM of TTVP for 10 min. […] The influence of incubation period was then investigated by utilizing a wash-free procedure with different staining times. […] The plasma membrane-staining ability of TTVP can be mainly attributed to its good hydrophilicity, which impedes the permeation of TTVP passing through the hydrophobic region of phospholipid bilayers. It is believed that the emitting moiety of TTVP is embedded within the hydrophobic region with low polarity, evidently giving fluorescent emission upon irradiation according to the restriction of intramolecular motions (RIM) mechanism of the AIE process (FIG. 6G). […] Additionally, ultrafast staining could result from the excellent monodispersity of TTVP in culture media of cells.

HeLa cells [8] = assay: MTT cytotoxicity in dark conditions (biocompatibility); type: cell-based
Protocol: For cytotoxicity studies relating to biocompatibility of the present compounds to Hela cells, MTT assays were used to evaluate the cytotoxicity of the presented AIEgens. Cells were seeded in 96-well plates (Costar, IL, USA) at a density of 6000-8000 cells/well. After overnight culturing, medium in each well were replaced by 100 μL fresh medium containing different concentrations of TTVP. 24 hours later, 10 μL MTT solution (5 mg/mL in PBS) was added into each well. After 4 hours of incubation, 100 μL SDS-HCl aqueous solution (10% SDS and 0.01 M HCl) was added to each well. After incubation for 4 hours, the absorption of each well at 595 nm was recorded via a plate reader (Perkin-Elmer Victor3™). Each trial was performed with 6 wells parallel.
as §3

HCT116 cells = assay: Ultrafast wash-free plasma membrane imaging; type: cell-based; details: 500 nM, around 3 s
Protocol: as §4
(§5) Encouraged by the distinct advantages of TTVP for membrane-specific imaging, this ultrafast staining and wash-free cellular imaging protocol was further employed for staining other cell lines, including 293T, HCC827, HCT116, and MDCK2.

MDCK2 cells = assay: Ultrafast wash-free plasma membrane imaging; type: cell-based; details: 500 nM, around 3 s
Protocol: as §4, §5

293T cells = assay: Ultrafast wash-free plasma membrane imaging; type: cell-based; details: 500 nM, around 3 s
Protocol: as §4, §5

HCC827 cells = assay: Ultrafast wash-free plasma membrane imaging; type: cell-based; details: 500 nM, around 3 s
Protocol: as §4, §5

## C[N+](C)(C)CCC[n+]1ccc(/C=C/c2ccc(-c3ccc(N(c4ccccc4)c4ccccc4)cc3)s2)cc1 [TTVP]
[1]
  enhancement of H2DCF-DA emission intensity (ROS generation): 87 fold
[2]
  average hydrodynamic diameter of nanoaggregates: around 43 nm
  polydispersity index: 0.13
HeLa cells [3]
  change of emission intensity on irradiation (photostability): slightly decreased
[4]; aggregated state, water/THF mixture
  λem (nm) Aggr, maximum emission in aggregated state: 708 nm
[4]; aqueous solution, at 515 nm
  ε, molar extinction coefficient: 33517 M⁻¹ cm⁻¹
[4]; aqueous solutions
  λabs (nm), absorption maximum: 515 nm
[4]; solid state
  λem (nm) Solid, emission maximum in solid state: 705 nm
[4]; solid state, ambient conditions
  τ, fluorescence lifetime: 0.92 ns
[4]; solid state, calibrated integrating sphere
  ΦF, fluorescence quantum yield: 2.7%
HeLa cells [5]
  cell necrosis on light irradiation: caused cancer cell necrosis in a short period of time
HeLa cells [6]; 1 μM
  cell death: almost complete cell death
HeLa cells [6]; Homo sapiens, HeLa, light or radiation study, 10 min, 500 nM, read-out: cell viability
  viability at 0.5 µM: 15%
Water solubility
  water solubility: good water solubility
[7]; 500 nM, 10 min incubation, with or without washing
  plasma membrane visualization: clearly visualized with excellent image contrast
[7]; 500 nM, shaking a few seconds at room temperature, wash-free
  plasma membrane staining: lit up significantly
[7]; 500 nM, staining for 6 hours
  cellular localization after long staining: A majority of TTVP entered the cells
[7]; 500 nM, staining time 4 h
  plasma membrane visualization: still be clearly visualized
[7]; living HeLa cells stained with TTVP
  maximum emission of stained living cells: 623 nm
HeLa cells [8]
  cytotoxicity in dark conditions: low cytotoxicity
HeLa cells [8]; 1 μM
  cell viability: 90%
HCT116 cells
  plasma membrane visualization: clearly visualized
MDCK2 cells
  plasma membrane visualization: clearly visualized
293T cells
  plasma membrane visualization: clearly visualized
HCC827 cells
  plasma membrane visualization: clearly visualized

## CCCCCCCCCCCCCCCCCCN1/C(=C\C=C\c2oc3ccccc3[n+]2CCCCCCCCCCCCCCCCCC)Oc2ccccc21.[O-][Cl+3]([O-])([O-])[O-] [DiO, reference compound]
HeLa cells [3]
  change of emission intensity on irradiation (photostability): fluorescence loss of DiO was very obvious
